“And” between values parts separate entries of the source, which are not always exact repeats. Identical values can stand only once. Like-named read-outs stand apart in the source and are kept apart here.
Key:
[1] = Pharmacokinetics in ICR mice after intravenous and intragastric administration; assay type: in vivo; conditions: for F*: PO 5 mg/kg vs IV 2 mg/kg, mean; for Vd: read-out: Vz; for MRT last: read-out: MRT(0-t); for MRT inf: read-out: MRT(0-∞)
In short: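 Male ICR mice, fasted overnight, n=3 per route, given 2 mg/kg IV or 5 mg/kg intragastric in 5% DMSO/40% PEG400/55% (10% HP-β-CD in saline). Plasma drug levels measured by LC-MS/MS after protein precipitation (LLOQ 1 ng/mL); noncompartmental AUC, t1/2, MRT, Cmax, Tmax, F, Vz, CL derived.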

MDM2 = biological target: T1, MDM2 (Homo sapiens, UniProt Q00987); assay: Inhibition test of MDM2-P53 (GST-MDM2, Biotin-P53, Anti-GST-Tb, SA-XL665); assay type: binding
T1 construct: made in house
T1 sequence (Q00987 whole entry): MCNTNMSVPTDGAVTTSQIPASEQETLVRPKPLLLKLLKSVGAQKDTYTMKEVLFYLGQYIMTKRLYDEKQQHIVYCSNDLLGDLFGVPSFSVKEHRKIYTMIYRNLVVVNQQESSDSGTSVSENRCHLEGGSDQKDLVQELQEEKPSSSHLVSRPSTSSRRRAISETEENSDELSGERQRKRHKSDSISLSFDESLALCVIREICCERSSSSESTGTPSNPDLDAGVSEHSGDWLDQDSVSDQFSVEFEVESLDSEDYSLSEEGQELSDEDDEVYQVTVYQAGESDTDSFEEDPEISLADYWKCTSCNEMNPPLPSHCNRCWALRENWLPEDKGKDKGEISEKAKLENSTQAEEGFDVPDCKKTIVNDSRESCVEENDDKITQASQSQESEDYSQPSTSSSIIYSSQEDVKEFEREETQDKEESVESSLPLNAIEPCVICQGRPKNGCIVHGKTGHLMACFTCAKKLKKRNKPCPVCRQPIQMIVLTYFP
In short: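 Binding was measured by TR-FRET with GST-MDM2 at 4 nM final in PBS with 0.1% BSA, 5 mM DTT and 1 mM AEBSF. Compounds were tested as twelve-point 5-fold dilutions and incubated with the detection mix for 90 min at 25 °C with shaking before plate-reader reading and curve fitting.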

[2] = test system: human osteosarcoma cell line SJSA-1; assay: Inhibition of proliferation of human osteosarcoma cell line SJSA-1 (DAPI staining, In Cell Analyzer); conditions: Homo sapiens, SJSA-1, 72 h, read-out: IC50 (nM), inhibitory activity on proliferation of human osteosarcoma cell line SJSA-1, SJSA-1, incubated 72 h
[3] = ICR mice, IV 2 mg/kg, individual animals 301-303, 2 mg/kg
[4] = ICR mice, PO 5 mg/kg, individual animals 401-403, 5 mg/kg
[5] = male, ICR, mouse, plasma, iv, 2 mg/kg, ICR mice, IV 2 mg/kg, individual animals 301-303, read-out: Cmax
[6] = male, ICR, mouse, plasma, iv, 2 mg/kg, ICR mice, IV 2 mg/kg, individual animals 301-303, read-out: Tmax
[7] = male, ICR, mouse, plasma, iv, 2 mg/kg, ICR mice, IV 2 mg/kg, individual animals 301-303
[8] = male, ICR, mouse, plasma, iv, 2 mg/kg, ICR mice, IV 2 mg/kg, mean of 3 animals
[9] = male, ICR, mouse, plasma, iv, 2 mg/kg, ICR mice, IV 2 mg/kg, mean of 3 animals, read-out: AUC(0-t)
[10] = male, ICR, mouse, plasma, iv, 2 mg/kg, ICR mice, IV 2 mg/kg, mean of 3 animals, read-out: Cmax
[11] = male, ICR, mouse, plasma, iv, 2 mg/kg, ICR mice, IV 2 mg/kg, mean of 3 animals, read-out: Tmax
[12] = male, ICR, mouse, plasma, iv, 2 mg/kg, ICR mice, IV 2 mg/kg, mean of 3 animals, read-out: t1/2 (converted)
[13] = male, ICR, mouse, plasma, po, 5 mg/kg, ICR mice, PO 5 mg/kg, individual animals 401-403
[14] = male, ICR, mouse, plasma, po, 5 mg/kg, ICR mice, PO 5 mg/kg, individual animals 401-403, read-out: AUC(0-t)
[15] = male, ICR, mouse, plasma, po, 5 mg/kg, ICR mice, PO 5 mg/kg, individual animals 401-403, read-out: Cmax
[16] = male, ICR, mouse, plasma, po, 5 mg/kg, ICR mice, PO 5 mg/kg, individual animals 401-403, read-out: Tmax
[17] = male, ICR, mouse, plasma, po, 5 mg/kg, ICR mice, PO 5 mg/kg, individual animals 401-403, read-out: t1/2 (converted)
[18] = male, ICR, mouse, plasma, po, 5 mg/kg, ICR mice, PO 5 mg/kg, mean of 3 animals
[19] = male, ICR, mouse, plasma, po, 5 mg/kg, ICR mice, PO 5 mg/kg, mean of 3 animals, read-out: AUC(0-t)
[20] = male, ICR, mouse, plasma, po, 5 mg/kg, ICR mice, PO 5 mg/kg, mean of 3 animals, read-out: Cmax
[21] = male, ICR, mouse, plasma, po, 5 mg/kg, ICR mice, PO 5 mg/kg, mean of 3 animals, read-out: Tmax
[22] = male, ICR, mouse, plasma, po, 5 mg/kg, ICR mice, PO 5 mg/kg, mean of 3 animals, read-out: t1/2 (converted)
[23] = male, ICR, mouse, plasma, po, 5 mg/kg, oral intragastric administration 5 mg/kg, read-out: AUC0-t

COc1nc(OCCF)ncc1-c1nc2c(n1C(C)C)[C@@]1(C(=O)Nc3cc(Cl)ccc31)N(c1cc(Cl)ccc1C)C2=O [Example S-140, (S)-6-chloro-5′-(5-chloro-2-methylphenyl)-2′-(2-(2-fluoroethoxy)-4-methoxypyrimidin-5-yl)-3′-isopropyl-3′H-spiro[dihydroindole-3,4′-pyrrolo[3,4-d]imidazole]-2,6′(5′H)-dione]
AUC(0-t) [1, 3]: 9144.58 ng·h/mL and 19456.40 ng·h/mL and 11628.12 ng·h/mL
CL [1, 3]: 3.37 mL/min/kg and 1.67 mL/min/kg and 2.26 mL/min/kg
Cmax [1, 3]: 6627.89 ng/mL and 5215.16 ng/mL
MRT(0-t) [1, 3]: 1.58 h and 3.73 h and 1.94 h
Vz [1, 3]: 0.61 L/kg and 0.52 L/kg
t1/2 [1, 3]: 1.70 h and 4.19 h and 2.67 h
F* ([1]; ICR mice): 72.11%
AUC(0-t) [1, 4]: 26053.96 ng·h/mL and 23914.34 ng·h/mL
AUC(0-∞) [1, 4]: 26994.24 ng·h/mL and 26699.24 ng·h/mL
Cmax [1, 4]: 5947.01 ng/mL and 4972.85 ng/mL
MRT(0-t) [1, 4]: 2.67 h
MRT(0-∞) [1, 4]: 2.93 h and 3.85 h
Tmax [1, 4]: 1.00 h
t1/2 [1, 4]: 1.54 h and 2.38 h
Cmax [1, 5]: 4540 ng/mL
Tmax [1, 6]: 0.08 h
Vd [1, 7]: 0.5 L/kg
clearance [1, 8]: 2.43 mL/min/kg
AUC(0-t) [1, 9]: 13400 ng·h/mL
Cmax [1, 10]: 5460 ng/mL
MRT last [1, 8]: 2.42 h
Tmax [1, 11]: 0.083 h
Vd [1, 8]: 0.54 L/kg
half-life [1, 12]: 2.86 h
AUC(0-t) ([1]; male, ICR, mouse, plasma, iv, 2 mg/kg, ICR mice, IV 2 mg/kg, mean of 3 animals, second AUC column (c5) of Table 26, read-out: AUC(0-t)): 14900 ng·h/mL
MRT last ([1]; male, ICR, mouse, plasma, iv, 2 mg/kg, ICR mice, IV 2 mg/kg, mean of 3 animals, second MRT column (c7) of Table 26): 3.36 h
AUC(0-inf) [1, 13]: 24700 ng·h/mL
AUC(0-t) [1, 14]: 22600 ng·h/mL
Cmax [1, 15]: 4250 ng/mL
MRT last [1, 13]: 2.97 h
MRT inf [1, 13]: 3.69 h
Tmax [1, 16]: 2 h
half-life [1, 17]: 2.19 h
AUC(0-inf) [1, 18]: 26100 ng·h/mL
AUC(0-t) [1, 19]: 24200 ng·h/mL
Cmax [1, 20]: 5060 ng/mL
MRT last [1, 18]: 2.87 h
MRT inf [1, 18]: 3.49 h
Tmax [1, 21]: 1.67 h
half-life [1, 22]: 2.04 h
AUC(0-t) [1, 23]: 24200 ng·h/mL
half-life ([1]; male, ICR, mouse, plasma, po, 5 mg/kg, oral intragastric administration 5 mg/kg, read-out: half-life (converted)): 2.04 h
IC50 (MDM2): 0.00106 µM
IC50 [2]: 81.5 nM

COc1nc(C2CC2)ncc1-c1nc2c(n1C(C)C)[C@@]1(C(=O)Nc3cc(Cl)ccc31)N(c1cc(Cl)cnc1C)C2=O [Example S-159, (S)-6-chloro-5′-(5-chloro-2-methylpyridin-3-yl)-2′-(2-cyclopropyl-4-methoxypyrimidin-5-yl)-3′-isopropyl-3′H-spiro[dihydroindole-3,4′-pyrrolo[3,4-d]imidazole]-2,6′(5′H)-dione]
AUC(0-t) [1, 3]: 4456.51 ng·h/mL and 4501.92 ng·h/mL
Cmax [1, 3]: 2591.90 ng/mL and 2457.53 ng/mL
MRT(0-t) [1, 3]: 1.45 h and 1.52 h
MRT(0-∞) [1, 3]: 2.00 h and 2.19 h
Vz [1, 3]: 1.05 L/kg
t1/2 [1, 3]: 1.75 h
F* ([1]; ICR mice): 52.53%
AUC(0-t) [1, 4]: 5902.77 ng·h/mL and 6839.45 ng·h/mL
AUC(0-∞) [1, 4]: 6003.28 ng·h/mL and 7052.50 ng·h/mL
Cmax [1, 4]: 1853.01 ng/mL and 1794.96 ng/mL
MRT(0-t) [1, 4]: 2.27 h and 2.45 h
MRT(0-∞) [1, 4]: 2.40 h and 2.68 h
t1/2 [1, 4]: 1.28 h and 1.47 h
AUC(0-inf) [1, 7]: 3720 ng·h/mL
clearance [1, 7]: 17.9 mL/min/kg
AUC(0-t) ([1]; male, ICR, mouse, plasma, iv, 2 mg/kg, ICR mice, IV 2 mg/kg, individual animals 301-303, read-out: AUC(0-t)): 3600 ng·h/mL
Cmax [1, 5]: 2540 ng/mL
MRT last [1, 7]: 1.23 h
MRT inf [1, 7]: 1.45 h
Tmax [1, 6]: 0.08 h
Vd [1, 7]: 0.95 L/kg
half-life ([1]; male, ICR, mouse, plasma, iv, 2 mg/kg, ICR mice, IV 2 mg/kg, individual animals 301-303, read-out: t1/2 (converted)): 1.22 h
AUC(0-inf) [1, 8]: 4500 ng·h/mL
clearance [1, 8]: 15.1 mL/min/kg
AUC(0-t) [1, 9]: 4180 ng·h/mL
Cmax [1, 10]: 2530 ng/mL
MRT last [1, 8]: 1.4 h
MRT inf [1, 8]: 1.88 h
Tmax [1, 11]: 0.083 h
Vd [1, 8]: 1.02 L/kg
half-life [1, 12]: 1.61 h
AUC(0-inf) [1, 13]: 3770 ng·h/mL
AUC(0-t) [1, 14]: 3740 ng·h/mL
Cmax [1, 15]: 1440 ng/mL
MRT last [1, 13]: 1.9 h
MRT inf [1, 13]: 1.95 h
Tmax [1, 16]: 1 h
half-life [1, 17]: 1.03 h
AUC(0-inf) [1, 18]: 5610 ng·h/mL
AUC(0-t) [1, 19]: 5500 ng·h/mL
Cmax [1, 20]: 1700 ng/mL
MRT last [1, 18]: 2.21 h
MRT inf [1, 18]: 2.34 h
Tmax [1, 21]: 1 h
half-life [1, 22]: 1.26 h
AUC(0-t) [1, 23]: 5500 ng·h/mL
IC50 (MDM2): 0.0028 µM
IC50 [2]: 34.2 nM

— patent publication US11339171B2, “MDM2 inhibitors” (Gan & Lee Pharmaceuticals, priority 2017, dated 2022)
